According to ChEMBL document CHEMBL1287770, “A protected l-bromophosphonomethylphenylalanine amino acid derivative (BrPmp) for synthesis of irreversible protein tyrosine phosphatase inhibitors” (Bioorg Med Chem, 2010):
Blank lines part the entries; values can stand above or below the molecule they belong to. Active and inactive are the calls of the source. The calls are words filed in the database; no cut-off is given here.

Assays:
[1] = target: T1, Receptor-type tyrosine-protein phosphatase C (Homo sapiens) (UniProt P08575); assay: Competitive inhibition of human CD45-cytoplasmic domain after 10 mins
T1 sequence (whole entry): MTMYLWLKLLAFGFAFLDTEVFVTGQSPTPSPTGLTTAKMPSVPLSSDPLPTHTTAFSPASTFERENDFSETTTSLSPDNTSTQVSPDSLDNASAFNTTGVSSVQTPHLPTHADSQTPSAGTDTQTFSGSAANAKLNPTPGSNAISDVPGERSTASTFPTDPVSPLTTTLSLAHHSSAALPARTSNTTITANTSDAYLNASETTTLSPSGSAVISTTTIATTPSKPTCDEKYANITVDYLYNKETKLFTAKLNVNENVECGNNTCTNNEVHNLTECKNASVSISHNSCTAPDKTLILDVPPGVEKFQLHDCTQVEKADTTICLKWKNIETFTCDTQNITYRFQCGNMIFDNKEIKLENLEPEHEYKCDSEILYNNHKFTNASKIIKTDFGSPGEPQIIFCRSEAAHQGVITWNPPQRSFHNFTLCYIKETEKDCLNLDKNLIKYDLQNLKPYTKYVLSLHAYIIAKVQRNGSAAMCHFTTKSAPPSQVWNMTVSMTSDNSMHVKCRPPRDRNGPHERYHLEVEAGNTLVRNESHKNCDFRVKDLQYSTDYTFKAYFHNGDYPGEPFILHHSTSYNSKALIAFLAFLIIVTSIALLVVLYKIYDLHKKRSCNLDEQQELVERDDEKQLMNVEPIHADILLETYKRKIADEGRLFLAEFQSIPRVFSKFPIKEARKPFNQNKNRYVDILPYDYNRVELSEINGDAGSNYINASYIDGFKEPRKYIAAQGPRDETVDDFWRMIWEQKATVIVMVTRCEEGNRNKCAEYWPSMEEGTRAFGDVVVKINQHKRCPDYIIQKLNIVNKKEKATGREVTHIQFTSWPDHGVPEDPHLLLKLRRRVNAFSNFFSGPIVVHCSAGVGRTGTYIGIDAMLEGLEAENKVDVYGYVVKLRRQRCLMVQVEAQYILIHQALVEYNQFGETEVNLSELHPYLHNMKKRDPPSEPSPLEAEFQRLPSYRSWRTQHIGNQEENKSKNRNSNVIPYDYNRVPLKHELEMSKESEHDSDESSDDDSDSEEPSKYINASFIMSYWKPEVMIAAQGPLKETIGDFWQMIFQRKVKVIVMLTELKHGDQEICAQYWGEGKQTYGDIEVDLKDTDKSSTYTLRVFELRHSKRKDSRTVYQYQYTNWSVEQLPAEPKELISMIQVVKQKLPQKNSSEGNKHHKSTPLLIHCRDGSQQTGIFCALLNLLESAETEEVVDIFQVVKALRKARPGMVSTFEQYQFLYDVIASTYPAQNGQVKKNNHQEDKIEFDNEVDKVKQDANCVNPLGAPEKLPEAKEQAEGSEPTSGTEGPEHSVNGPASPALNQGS

[2] = target: T2, Receptor-type tyrosine-protein phosphatase C (Homo sapiens, UniProt P08575); assay: Inhibition of human CD45-cytoplasmic domain at 1500 uM after 10 mins by Kitz-Wilson analysis
T2 sequence (P08575 whole entry): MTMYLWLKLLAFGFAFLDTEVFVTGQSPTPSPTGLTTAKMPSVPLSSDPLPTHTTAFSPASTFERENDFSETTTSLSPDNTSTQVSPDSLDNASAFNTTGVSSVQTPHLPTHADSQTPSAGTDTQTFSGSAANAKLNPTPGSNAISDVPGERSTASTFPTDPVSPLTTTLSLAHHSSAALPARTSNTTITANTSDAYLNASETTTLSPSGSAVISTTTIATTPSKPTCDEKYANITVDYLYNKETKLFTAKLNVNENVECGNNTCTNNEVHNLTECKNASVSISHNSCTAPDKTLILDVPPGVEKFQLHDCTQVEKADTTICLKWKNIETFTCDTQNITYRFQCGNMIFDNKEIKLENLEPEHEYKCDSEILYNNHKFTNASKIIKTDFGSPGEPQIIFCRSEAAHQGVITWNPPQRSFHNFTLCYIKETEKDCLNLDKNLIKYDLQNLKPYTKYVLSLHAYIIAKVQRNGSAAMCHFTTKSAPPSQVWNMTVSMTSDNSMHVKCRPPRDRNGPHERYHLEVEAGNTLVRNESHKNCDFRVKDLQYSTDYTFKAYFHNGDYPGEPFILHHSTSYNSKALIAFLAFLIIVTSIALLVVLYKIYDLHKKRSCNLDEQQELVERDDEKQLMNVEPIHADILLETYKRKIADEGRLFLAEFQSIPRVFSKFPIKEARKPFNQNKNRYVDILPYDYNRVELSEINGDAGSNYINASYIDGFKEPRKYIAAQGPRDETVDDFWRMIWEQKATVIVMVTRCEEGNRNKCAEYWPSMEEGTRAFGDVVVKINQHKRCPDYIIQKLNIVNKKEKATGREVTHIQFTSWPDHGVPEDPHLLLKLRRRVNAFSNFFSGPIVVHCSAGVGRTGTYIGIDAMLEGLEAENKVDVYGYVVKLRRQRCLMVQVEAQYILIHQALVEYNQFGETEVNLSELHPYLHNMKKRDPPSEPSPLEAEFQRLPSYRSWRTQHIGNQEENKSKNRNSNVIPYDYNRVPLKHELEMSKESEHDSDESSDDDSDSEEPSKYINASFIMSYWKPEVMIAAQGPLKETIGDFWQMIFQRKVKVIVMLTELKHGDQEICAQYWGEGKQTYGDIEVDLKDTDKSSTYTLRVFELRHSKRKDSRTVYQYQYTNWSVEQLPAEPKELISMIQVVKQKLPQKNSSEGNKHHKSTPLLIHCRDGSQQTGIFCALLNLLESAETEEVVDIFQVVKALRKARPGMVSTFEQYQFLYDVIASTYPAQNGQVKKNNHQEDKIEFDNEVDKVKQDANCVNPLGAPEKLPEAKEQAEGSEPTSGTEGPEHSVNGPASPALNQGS

[3] = target: T2, Receptor-type tyrosine-protein phosphatase C; assay: Inhibition of human CD45-cytoplasmic domain at 150 uM after 10 mins by Kitz-Wilson analysis
[4] = target: T1, Receptor-type tyrosine-protein phosphatase C (Homo sapiens); assay: Competitive inhibition of human CD45-cytoplasmic domain; details: TDE = time-dependent effect
[5] = compound: CC(C)C[C@H](NC(=O)[C@H](Cc1ccc(C(Br)P(=O)(O)O)cc1)NC(=O)[C@@H](N)CC(=O)O)C(=O)O; assay: Inhibition of human CD45-cytoplasmic domain at 35 uM after 10 mins by Michaelis-Menten equation analysis
[6] = compound: N[C@@H](Cc1ccc(C(Br)P(=O)(O)O)cc1)C(=O)O; assay: Inhibition of human CD45-cytoplasmic domain at 150 uM after 10 mins by Michaelis-Menten equation analysis

- inhibition [1]: inactive
Molecule: CC(C)C[C@H](NC(=O)[C@H](Cc1ccc(C(Br)P(=O)(O)O)cc1)NC(=O)[C@@H](N)CC(=O)O)C(=O)O (some centres not stated)

Molecule: O=P(O)(O)C(Br)c1ccccc1 (configuration not stated) [[BROMO(PHENYL)METHYL]PHOSPHONIC ACID]
- Ki [2]: Not Active

- Ki [3]: 40 µM
- inhibition [1]: inactive
- inhibition [4]: tde
Molecule: N[C@@H](Cc1ccc(C(Br)P(=O)(O)O)cc1)C(=O)O (some centres not stated)

B1: Receptor-type tyrosine-protein phosphatase C (Homo sapiens), P08575 (protein)
chain: MTMYLWLKLLAFGFAFLDTEVFVTGQSPTPSPTGLTTAKMPSVPLSSDPLPTHTTAFSPASTFERENDFSETTTSLSPDNTSTQVSPDSLDNASAFNTTGVSSVQTPHLPTHADSQTPSAGTDTQTFSGSAANAKLNPTPGSNAISDVPGERSTASTFPTDPVSPLTTTLSLAHHSSAALPARTSNTTITANTSDAYLNASETTTLSPSGSAVISTTTIATTPSKPTCDEKYANITVDYLYNKETKLFTAKLNVNENVECGNNTCTNNEVHNLTECKNASVSISHNSCTAPDKTLILDVPPGVEKFQLHDCTQVEKADTTICLKWKNIETFTCDTQNITYRFQCGNMIFDNKEIKLENLEPEHEYKCDSEILYNNHKFTNASKIIKTDFGSPGEPQIIFCRSEAAHQGVITWNPPQRSFHNFTLCYIKETEKDCLNLDKNLIKYDLQNLKPYTKYVLSLHAYIIAKVQRNGSAAMCHFTTKSAPPSQVWNMTVSMTSDNSMHVKCRPPRDRNGPHERYHLEVEAGNTLVRNESHKNCDFRVKDLQYSTDYTFKAYFHNGDYPGEPFILHHSTSYNSKALIAFLAFLIIVTSIALLVVLYKIYDLHKKRSCNLDEQQELVERDDEKQLMNVEPIHADILLETYKRKIADEGRLFLAEFQSIPRVFSKFPIKEARKPFNQNKNRYVDILPYDYNRVELSEINGDAGSNYINASYIDGFKEPRKYIAAQGPRDETVDDFWRMIWEQKATVIVMVTRCEEGNRNKCAEYWPSMEEGTRAFGDVVVKINQHKRCPDYIIQKLNIVNKKEKATGREVTHIQFTSWPDHGVPEDPHLLLKLRRRVNAFSNFFSGPIVVHCSAGVGRTGTYIGIDAMLEGLEAENKVDVYGYVVKLRRQRCLMVQVEAQYILIHQALVEYNQFGETEVNLSELHPYLHNMKKRDPPSEPSPLEAEFQRLPSYRSWRTQHIGNQEENKSKNRNSNVIPYDYNRVPLKHELEMSKESEHDSDESSDDDSDSEEPSKYINASFIMSYWKPEVMIAAQGPLKETIGDFWQMIFQRKVKVIVMLTELKHGDQEICAQYWGEGKQTYGDIEVDLKDTDKSSTYTLRVFELRHSKRKDSRTVYQYQYTNWSVEQLPAEPKELISMIQVVKQKLPQKNSSEGNKHHKSTPLLIHCRDGSQQTGIFCALLNLLESAETEEVVDIFQVVKALRKARPGMVSTFEQYQFLYDVIASTYPAQNGQVKKNNHQEDKIEFDNEVDKVKQDANCVNPLGAPEKLPEAKEQAEGSEPTSGTEGPEHSVNGPASPALNQGS
- Km [5]: 141 µM
- Km [6]: 141 µM
